Test results from the NIST ThermoML archive (doi:10.1016/j.jct.2003.12.012).

Columns and labels:
[1] = molar heat capacity at saturation pressure
[2] = for mass density / vapor or sublimation pressure: Liquid; for mass density: Vibrating tube method
[3] = Molar enthalpy of transition or fusion; settings: Crystal; Adiabatic calorimetry

c1ccc2c3c(sc2c1)CCCC3 [1,2,3,4-tetrahydrodibenzothiophene]
molar heat capacity [J/K/mol], [1]
Settings	Crystal	Liquid
4.929 K, Vacuum adiabatic calorimetry	0.32	–
5 K, Vacuum adiabatic calorimetry	0.33	–
5.867 K, Vacuum adiabatic calorimetry	0.56	–
6.798 K, Vacuum adiabatic calorimetry	0.931	–
7.734 K, Vacuum adiabatic calorimetry	1.41	–
8.759 K, Vacuum adiabatic calorimetry	2.08	–
9.819 K, Vacuum adiabatic calorimetry	2.94	–
10 K, Vacuum adiabatic calorimetry	3.08	–
10.94 K, Vacuum adiabatic calorimetry	3.96	–
12.2 K, Vacuum adiabatic calorimetry	5.23	–
13.6 K, Vacuum adiabatic calorimetry	6.8	–
15.14 K, Vacuum adiabatic calorimetry	8.647	–
16.83 K, Vacuum adiabatic calorimetry	10.74	–
18.67 K, Vacuum adiabatic calorimetry	13.06	–
20 K, Vacuum adiabatic calorimetry	14.74	–
20.68 K, Vacuum adiabatic calorimetry	15.6	–
22.91 K, Vacuum adiabatic calorimetry	18.38	–
25.4 K, Vacuum adiabatic calorimetry	21.41	–
28.17 K, Vacuum adiabatic calorimetry	24.67	–
30 K, Vacuum adiabatic calorimetry	26.76	–
31.26 K, Vacuum adiabatic calorimetry	28.16	–
34.71 K, Vacuum adiabatic calorimetry	31.86	–
38.53 K, Vacuum adiabatic calorimetry	35.74	–
40 K, Vacuum adiabatic calorimetry	37.17	–
42.79 K, Vacuum adiabatic calorimetry	39.83	–
47.54 K, Vacuum adiabatic calorimetry	44.15	–
50 K, Vacuum adiabatic calorimetry	46.29	–
52.85 K, Vacuum adiabatic calorimetry	48.69	–
58.73 K, Vacuum adiabatic calorimetry	53.4	–
59.8 K, Vacuum adiabatic calorimetry	54.26	–
60 K, Vacuum adiabatic calorimetry	54.39	–
65.16 K, Vacuum adiabatic calorimetry	58.28	–
65.33 K, Vacuum adiabatic calorimetry	58.42	–
70 K, Vacuum adiabatic calorimetry	61.88	–
71.56 K, Vacuum adiabatic calorimetry	63.02	–
78.46 K, Vacuum adiabatic calorimetry	67.87	–
80 K, Vacuum adiabatic calorimetry	68.94	–
85.75 K, Vacuum adiabatic calorimetry	72.84	–
90 K, Vacuum adiabatic calorimetry	75.67	–
90.98 K, Vacuum adiabatic calorimetry	76.33	–
93.89 K, Vacuum adiabatic calorimetry	78.25	–
99.3 K, Vacuum adiabatic calorimetry	81.84	–
100 K, Vacuum adiabatic calorimetry	82.3	–
108.29 K, Vacuum adiabatic calorimetry	87.72	–
117.93 K, Vacuum adiabatic calorimetry	93.99	–
120 K, Vacuum adiabatic calorimetry	95.28	–
127.8 K, Vacuum adiabatic calorimetry	100.49	–
138.76 K, Vacuum adiabatic calorimetry	107.84	–
140 K, Vacuum adiabatic calorimetry	108.6	–
150.73 K, Vacuum adiabatic calorimetry	116.11	–
160 K, Vacuum adiabatic calorimetry	122.46	–
162.76 K, Vacuum adiabatic calorimetry	124.52	–
174.79 K, Vacuum adiabatic calorimetry	133.17	–
180 K, Vacuum adiabatic calorimetry	136.76	–
186.82 K, Vacuum adiabatic calorimetry	141.95	–
198.84 K, Vacuum adiabatic calorimetry	151.12	–
199.7 K, Vacuum adiabatic calorimetry	151.8	–
200 K, Vacuum adiabatic calorimetry	151.75	–
210.84 K, Vacuum adiabatic calorimetry	160.54	–
212.28 K, Vacuum adiabatic calorimetry	161.67	–
220 K, Vacuum adiabatic calorimetry	167.35	–
222.84 K, Vacuum adiabatic calorimetry	170.12	–
225.76 K, Vacuum adiabatic calorimetry	172.63	–
232.14 K, Vacuum adiabatic calorimetry	177.99	–
234.83 K, Vacuum adiabatic calorimetry	180.25	–
238.71 K, Vacuum adiabatic calorimetry	183.61	–
240 K, Vacuum adiabatic calorimetry	183.48	–
247.47 K, Vacuum adiabatic calorimetry	192.11	–
249.42 K, Vacuum adiabatic calorimetry	193.97	–
251.32 K, Vacuum adiabatic calorimetry	196.13	–
260 K, Vacuum adiabatic calorimetry	200.99	–
262.17 K, Vacuum adiabatic calorimetry	216.81	–
263.64 K, Vacuum adiabatic calorimetry	221.51	–
263.71 K, Vacuum adiabatic calorimetry	222.9	–
275.03 K, Vacuum adiabatic calorimetry	216.13	256.66
280 K, Vacuum adiabatic calorimetry	–	259.07
282.32 K, Vacuum adiabatic calorimetry	–	260.24
283.78 K, Vacuum adiabatic calorimetry	–	260.98
287.63 K, Vacuum adiabatic calorimetry	–	262.81
291.46 K, Vacuum adiabatic calorimetry	–	264.72
298.15 K, Vacuum adiabatic calorimetry	–	268.09
300 K, Vacuum adiabatic calorimetry	–	269.02
300.54 K, Vacuum adiabatic calorimetry	–	269.29
301.1 K, Vacuum adiabatic calorimetry	–	269.61
315.41 K, Vacuum adiabatic calorimetry	–	277.04
320 K, Vacuum adiabatic calorimetry	–	279.47
330.79 K, Vacuum adiabatic calorimetry	–	285.2
340 K, Vacuum adiabatic calorimetry	–	290.16
343.22 K, Vacuum adiabatic calorimetry	–	291.9
359.69 K, Vacuum adiabatic calorimetry	–	300.83
360 K, Vacuum adiabatic calorimetry	–	301
376.04 K, Vacuum adiabatic calorimetry	–	309.7
380 K, Vacuum adiabatic calorimetry	–	311.85
392 K, Vacuum adiabatic calorimetry	–	318.35
400 K, Vacuum adiabatic calorimetry	–	322.67
408.31 K, Vacuum adiabatic calorimetry	–	327.12
420 K, Vacuum adiabatic calorimetry	–	333.33
424.94 K, Vacuum adiabatic calorimetry	–	335.95
437.47 K, Vacuum adiabatic calorimetry	–	342.54
440 K, Small sample (50 mg) DSC	–	344.04
460 K, Small sample (50 mg) DSC	–	355.38
480 K, Small sample (50 mg) DSC	–	366.09
500 K, Small sample (50 mg) DSC	–	376.9
520 K, Small sample (50 mg) DSC	–	387.66
540 K, Small sample (50 mg) DSC	–	398.39
560 K, Small sample (50 mg) DSC	–	409.11
580 K, Small sample (50 mg) DSC	–	419.8
600 K, Small sample (50 mg) DSC	–	430.43

[2]
Settings	mass density [kg/m3]
323.14 K	1125.7
348.13 K	1105.2
373.12 K	1086
423.11 K	1046.8
448.11 K	1028.1

[2]
Settings	Triple point temperature [K]	vapor or sublimation pressure [kPa]
359.98 K, Inclined piston gauge	–	0.0221
369.98 K, Inclined piston gauge	–	0.0414
379.97 K, Inclined piston gauge	–	0.0746
389.97 K, Inclined piston gauge	–	0.1296
400.17 K, Inclined piston gauge	–	0.2209
409.96 K, Inclined piston gauge	–	0.3567
419.97 K, Inclined piston gauge	–	0.5674
429.96 K, Inclined piston gauge	–	0.8785
439.96 K, Inclined piston gauge	–	1.328
449.96 K, Inclined piston gauge	–	1.962
450.48 K, Ebulliometric method (Recirculating still)	–	2.002
454.96 K, Inclined piston gauge	–	2.368
459.96 K, Inclined piston gauge	–	2.842
469.6 K, Ebulliometric method (Recirculating still)	–	3.993
478.25 K, Ebulliometric method (Recirculating still)	–	5.331
491.02 K, Ebulliometric method (Recirculating still)	–	8
500.6 K, Ebulliometric method (Recirculating still)	–	10.67
508.29 K, Ebulliometric method (Recirculating still)	–	13.32
516.36 K, Ebulliometric method (Recirculating still)	–	16.66
523.05 K, Ebulliometric method (Recirculating still)	–	19.94
531.82 K, Ebulliometric method (Recirculating still)	–	25.02
540.67 K, Ebulliometric method (Recirculating still)	–	31.18
549.55 K, Ebulliometric method (Recirculating still)	–	38.56
558.49 K, Ebulliometric method (Recirculating still)	–	47.38
567.47 K, Ebulliometric method (Recirculating still)	–	57.8
576.48 K, Ebulliometric method (Recirculating still)	–	70.09
585.54 K, Ebulliometric method (Recirculating still)	–	84.5
594.67 K, Ebulliometric method (Recirculating still)	–	101.29
603.84 K, Ebulliometric method (Recirculating still)	–	120.72
Crystal, Adiabatic calorimetry	275.03	–

Settings	Molar enthalpy of transition or fusion [kcal/mol]
[3]	3.348
